Test results published in publication PMC12348844, “Anti-Trypanosoma cruzi Potential of New Pyrazole-Imidazoline Derivatives” (Molecules, 2025).
Read-outs that look alike come from different tables or passages of the source.

Experiments:
T. cruzi (Dm28c-Luc) = test: Reversibility (washout) assay in T. cruzi-infected Vero cells; assay type: cell-based, Trypanosoma cruzi
Description: After treatment, the cultures were thoroughly washed, and parasite recrudescence was evaluated over an extended period of 10 days in RPMI medium supplemented with 10% fetal bovine serum (FBS). Culture supernatants were collected at intervals, and the luminescence signal indicative of trypomastigote release was assessed using a Glomax Multi-Detection plate reader (Promega Corporation, Madison, WI, USA) following the addition of luciferin every 2–3 days. At the experiment’s conclusion, the infection profile of the monolayer was also examined. Cells were fixed with PFA for 20 min at 4 °C, then stained with DAPI for microscopy analysis. Luminescence data were expressed in arbitrary luminescent units (A.L.U), and fluorescence images were acquired using the ImageXpress Micro XLS high-content screening (HCS) system (Molecular Devices, Sunnyvale, CA, USA).

[1] = test system: intracellular amastigotes of T. cruzi; test: Drug combination with Bz, fixed-ratio isobologram, intracellular amastigotes; assay type: cell-based; settings: Trypanosoma cruzi; proportion 1k:Bz 0:5, 72 h; read-out: IC50 (Mean ± DP) in combination assay
Description: The isobologram approach assessed the interaction between Bz and the promising candidate in intracellular amastigotes of T. cruzi. Vero cell cultures infected with T. cruzi (Dm28c-Luc) were treated for 72 h with various concentrations of combinations of Bz and the promising candidate, specifically at ratios of 5:0; 4:1; 3:2; 2:3; 1:4 and 0:5. The maximum concentration of each compound was established based on their IC50 values, ensuring both reached the fourth dilution in the serial dilution setup (1:3), culminating in a total of seven dilutions. After 72 h of treatment, parasite viability was measured by luminescence in a Glomax Multi-Detection plate reader (Promega Corporation, Madison, WI, USA) after incubation with luciferin. The IC50 values of each treatment combination were calculated individually, and the fractional inhibitory concentration index (FICI) was derived using the formula FICI = IC50 of the combination/IC50 of the compound alone. The overall FICI (ΣFICI) was calculated by summing the FICIs for both compounds in each combination group, while the average ΣFICI (xΣFICI) represented the overall mean across all combination groups. The xΣFICI values were then employed to classify the interaction as synergistic (xΣFICI ≤ 0.5), additive (0.5 < xΣFICI < 4), or antagonistic (xΣFICI > 4). […]

[2] = Cytotoxicity assay, Vero cells (CellTiter-Glo); assay type: cell-based; settings: African green monkey, mean ± SD
Description: Vero cells, obtained from the Rio de Janeiro Cell Bank (BCRT code 0245) and maintained through weekly subculturing with a dissociation solution containing 0.25% trypsin-EDTA, initiated once the monolayer reached an 80–100% confluence. Following harvesting, the cells were washed and resuspended in RPMI 1640 medium enriched with 10% fetal bovine serum (FBS). Cultures were maintained at 37 °C in a 5% CO2-humidified incubator. These cultures were used for drug screening assays and for producing culture-derived trypomastigotes of T. cruzi.
Cytotoxicity assays were performed using Vero cells, which were seeded at a density of 1.5 × 10^4 cells per well in white 96-well plates with clear bottoms. Following a 24 h adhesion period, the cultures were incubated at 37 °C in a 5% CO2 atmosphere. […] After 72 h of incubation, cell viability was assessed by adding CellTiter-Glo reagent (Promega Corporation, Madison, WI, USA), which induces cell lysis and reacts with the released ATP to produce luminescence. The resulting luminescence was measured using a Glomax Multi-Detection plate reader (Promega Corporation, Madison, WI, USA). The half-maximal inhibitory concentration (CC50) for cell viability was then calculated using GraphPad Prism software version 8.2.1.

[3] = test system: T. cruzi Dm28c-Luc intracellular amastigotes; test: Anti-T. cruzi in vitro assay, intracellular amastigotes in Vero cells (luminescence); assay type: cell-based, Trypanosoma cruzi; settings: Trypanosoma cruzi
Description: (§1) The genetically modified Trypanosoma cruzi, clone Dm28c (TcI), expressing luciferase (Dm28c-Luc), was kindly provided by Dr. Cristina Henriques from Oswaldo Cruz Institute—Fiocruz. The parasites were maintained using Vero cell cultures in RPMI 1640 medium enriched with 10% FBS. At 4 days post-infection (dpi), the trypomastigotes released into the culture supernatant were harvested, subjected to centrifugation at 800× g for 20 min at 4 °C, and quantified with a Neubauer chamber. The isolated trypomastigotes were subsequently used for phenotypic screening, drug efficacy assessments employing a 3D cardiac model, washout experiments to evaluate reversibility, drug combination studies, and enzymatic assays.
To evaluate the effect of pyrazole-imidazoline derivatives against intracellular amastigotes, Vero cells (1.5 × 10^4 cells/well) were cultured in a white 96-well plate with a clear bottom and subsequently infected with T. cruzi Dm28c-Luc at a 10:1 parasite-to-host cell ratio for 24 h. […] Parasite viability was measured by luminescence following the addition of luciferin (300 µg/mL). Background measurements (non-infected cultures incubated with luciferin, as well as luciferin-only controls) were performed to ensure the signal specifically originates from viable parasites. The IC50 and IC90 values, denoting the concentrations that achieve 50% and 90% reductions in viable parasites, respectively, were calculated using GraphPad Prism 8.2.1 software. Additionally, the selectivity index (SI) was calculated as the cytotoxic concentration (CC50) ratio in mammalian cells to the IC50 against T. cruzi, providing insight into the therapeutic window. Potency against intracellular amastigotes was evaluated using the formula 6—Log10 (IC50).

[4] = test system: T. cruzi Dm28c-Luc trypomastigotes; test: Anti-T. cruzi in vitro assay, trypomastigotes (luminescence); assay type: cell-based; settings: Trypanosoma cruzi, 24 h, mean ± SD
Description: as §1
Drug susceptibility assays were performed on T. cruzi Dm28c-Luc, a genetically engineered parasite expressing luciferase. The drug screening used both trypomastigotes and intracellular amastigotes. Trypomastigotes (1 × 10^6 parasites/well) were added to white 96-well plates with clear bottoms. […] The luminescence was measured using a Glomax Multi-Detection plate reader (Promega Corporation, Madison, WI, USA).

Compound: O=C(Cn1ccnc1[N+](=O)[O-])NCc1ccccc1 [Bz, Benznidazole, reference compound]
- reduction of parasite load of cell monolayer at 21 dpi (T. cruzi (Dm28c-Luc); 100 µM, 10 days treatment + 10 days washout): 98.4%
- parasite load of cell monolayer at 21 dpi (luminescence) (T. cruzi (Dm28c-Luc); 100 µM, untreated 5 × 10^5 A.L.U): 8 × 10^3 A.L.U
- sterility of cultures in reversibility assay (T. cruzi (Dm28c-Luc); 10 days treatment, tested conditions): failed to achieve sterility
- IC50 [1]: 2.3 ± 0.07 µM
- CC50 at 72 h [2]: > 500 µM
- IC50 ([3]; Vero, intracellular amastigotes, 6 − Log10(IC50), read-out: pIC50 (potency) (converted)): 2.51 µM
- IC90 ([3]; 72 h, Dm28c-Luc in Vero cells, mean ± SD): 10.4 ± 0.5 µM
- IC50 ([3]; 72 h, Dm28c-Luc in Vero cells, mean ± SD, read-out: Intracellular Amastigotes IC50): 2.2 ± 0.4 µM
- IC50 [4]: 20.5 ± 1.8 µM
- IC90 [4]: > 100 µM
